These results are taken from paper PMC11737842, “Development of a high‐throughput dual‐stream liquid chromatography–tandem mass spectrometry method to screen for inhibitors of glutamate carboxypeptidase II” (Rapid Communications in Mass Spectrometry, 2024).

Assay [1] has as its target T1, Glutamate carboxypeptidase II (GCPII) (Homo sapiens, UniProt Q04609).
T1 construct: gene FOLH1
The assay is described as follows: LC/MS/MS enzymatic assay of Glu released from NAAG by purchased GCPII, 11-point IC50. It counts as biochemical.

Assay [2] concerns the target T1, Glutamate carboxypeptidase II (GCPII). The assay is described as follows: LC/MS/MS measurement of Glu from GCPII cleavage of ([…]5 […]-labelled) NAAG. The assay is classed as biochemical.

Residues, ends and D or L forms follow the SMILES beside them.

T1 sequence (Q04609 whole entry): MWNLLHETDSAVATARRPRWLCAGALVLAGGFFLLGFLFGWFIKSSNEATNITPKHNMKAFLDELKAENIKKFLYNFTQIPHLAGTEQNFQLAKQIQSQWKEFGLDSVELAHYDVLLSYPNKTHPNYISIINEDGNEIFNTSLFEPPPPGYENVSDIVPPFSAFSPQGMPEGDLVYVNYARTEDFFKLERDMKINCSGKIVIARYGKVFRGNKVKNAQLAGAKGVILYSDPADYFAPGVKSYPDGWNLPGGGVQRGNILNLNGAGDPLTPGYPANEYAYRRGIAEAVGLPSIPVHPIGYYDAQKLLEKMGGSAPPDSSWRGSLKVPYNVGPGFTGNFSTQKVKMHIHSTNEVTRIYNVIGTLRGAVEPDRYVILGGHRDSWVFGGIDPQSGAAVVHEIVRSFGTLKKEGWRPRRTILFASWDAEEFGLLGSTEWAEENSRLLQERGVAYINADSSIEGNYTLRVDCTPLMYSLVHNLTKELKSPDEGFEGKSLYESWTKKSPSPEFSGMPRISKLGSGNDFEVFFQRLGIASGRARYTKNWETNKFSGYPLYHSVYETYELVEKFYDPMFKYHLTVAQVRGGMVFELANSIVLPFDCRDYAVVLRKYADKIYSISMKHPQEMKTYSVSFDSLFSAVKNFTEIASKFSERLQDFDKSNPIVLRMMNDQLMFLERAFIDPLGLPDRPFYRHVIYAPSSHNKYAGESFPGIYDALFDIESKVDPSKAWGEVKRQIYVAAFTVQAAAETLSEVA

For the molecule `N[C@@H](Cn1oc(=O)[nH]c1=O)C(=O)O` [quisqualic acid], the 50% inhibitory concentration (IC50) in assay [1] amounted to 1590 nM.

As to `CC(=O)N[C@@H](CC(=O)O)C(=O)N[C@@H](CCC(=O)O)C(=O)O` [NAAG] (Ac-Asp-Glu-OH), the “LC/MS/MS measurement of Glu from GCPII cleavage of (13C5 15N-labelled) NAAG” value in assay [2] is “LC/MS/MS) method to directly measure Glu resulting from in vitro GCPII cleavage of NAAG”.

The IC50 is the concentration needed to halve the response being measured.
